Assay results taken from patent publication US9371335B2, “Spirothienopyran-piperidine derivatives as ORL-1 receptor antagonists for their use in the treatment of alcohol dependence and abuse” (Eli Lilly and Company, priority 2011, dated 2016).

Key:
Type in all cases: in vivo, rat
msP rats [1] = assay: Free-choice ethanol self-administration in msP rats; details: 24 hr
Method: In a separate study, male msP rats are obtained from a private colony (University of Camerino, Marche, Italy), individually-housed with food, 10% ethanol (v/v in water), and water available ad libitum, and maintained on a 12 hr. light/dark cycle. Ethanol and water are measured using graduated bottles to assess the volume of ethanol consumed (Economidou D, Fedeli A, Fardon R M, Weiss F, Massi M and Ciccocioppo R (2006) Effect of novel nociceptin/orphanin FQ-NOP receptor ligands on ethanol drinking in alcohol-preferring msP rats. Peptides 27:3299-3306.). Food intake is monitored by weighing the food receptacle. Once rats reach a stable baseline of voluntary ethanol consumption of 5-6 g/kg/day (approximately 4-5 months of age), rats are treated orally with test compounds in the dose range of 3 or 30 mg/kg in a formulation consisting of 1:1 distilled water: 1 M H3PO4 (1-5 mL/kg dose volume), one hour prior to onset of the dark cycle, using a within-subjects, crossover design (3-4 day washout between subsequent doses). Ethanol, water, and food are presented to the animals at the onset of the dark cycle, and consumption of food and fluids is measured at 2, 8, and 24 hr intervals.

P rats = assay: Free-choice ethanol self-administration in P rats; details: for Mean EtOH Consumed in g/kg (Drug-treated) / Reduction vs. Vehicle (EtOH consumed): 12 hr; for ethanol self-administration: free-choice access, P rats and msP rats
Source text: Free-Choice Ethanol Self-Administration in Alcohol-Preferring Rats: P Rats:
In this procedure (modified from Rodd-Henricks Z A, McKinzie D L, Shaikh S R, Murphy J M, McBride W J, Lumeng L and Li T K (2000) Alcohol deprivation effect is prolonged in the alcohol preferring (P) rat after repeated deprivations. Alcohol Clin Exp Res 24:8-16), female P rats are obtained from a private colony (Taconic, Germantown, N.Y.), individually-housed with food, 15% ethanol (v/v, in water), and water available ad libitum, and maintained on a 12 hr. light/dark cycle (lights off at 16:00). The chambers are equipped with a force transduction system (TSE Systems, Bad Homburg, Germany) attached to the ethanol, water, and food receptacles to enable continuous monitoring of food and liquid consumption. Rats voluntarily consume 15% ethanol with a mean daily intake of roughly 5 g/kg for several months prior to drug testing. Rats are treated orally with vehicle or test compounds in the dose range of 3, 10, or 30 mg/kg (3 mL/kg dose volume, dissolved in a vehicle consisting of 20% Captisol® in 25 mM phosphate buffer at pH=2), or naltrexone (10 mg/kg, 1 mL/kg dose volume, dissolved in water) immediately prior to the onset of the dark cycle, using a within-subjects, crossover design (3-4 day washout between subsequent doses). In a separate experiment, rats receive oral administration of vehicle followed by 4 daily oral doses of vehicle or 30 mg/kg test compound immediately prior to the onset of the dark cycle, using a between-subjects design.

msP rats [2] = assay: Stress-induced (yohimbine) reinstatement of ethanol-seeking in msP rats; details: for Reduction vs. Vehicle (lever presses, yohimbine reinstatement) / Avg Lever Presses (Drug-treated): male msP rats, 30 mg/kg oral; for Avg Lever Presses (Drug-treated): yohimbine 2.0 mg/kg ip; for stress-induced reinstatement of ethanol-seeking: msP rats, result in words
Source text: Stress-Induced Reinstatement in msP Rats:
Stress is a key trigger for relapse to drug- and alcohol-seeking in humans and rodents (Sinha R (2008) Chronic stress, drug use, and vulnerability to addiction. Ann N Y Acad Sci 1141:105-130), and can be modeled in rats using a stress-induced reinstatement procedure. In this procedure, stress-induced reinstatement of alcohol-seeking is elicited by administration of the alpha2 adrenoceptor antagonist yohimbine, a known pharmacological stressor (Le A D, Harding S, Juzytsch W, Funk D and Shaham Y (2005) Role of alpha-2 adrenoceptors in stress-induced reinstatement of alcohol seeking and alcohol self-administration in rats. Psychopharmacology (Berl) 179:366-373).
Male msP rats are obtained from the University of Camerino (Marche, Italy) and individually housed with ad libitum access to water and standard laboratory chow. Rats are trained to lever press for 10% ethanol in water (v/v) in standard operant chambers (MED Associates, Inc., St. Albans, Vt.) located in sound-attenuating, ventilated environmental cubicles. The chambers consist of two stainless steel and two clear Plexiglas walls. The floor grid of the operant chambers consists of 0.5 cm diameter stainless steel bars placed approximately 1.5 cm apart. Each operant chamber is equipped with a drinking reservoir 4 cm above the grid floor, with two retractable operant levers located approximately 3 cm on either side of the drinking receptacle. Fluid delivery, lever presses, and presentation of visual stimuli (illumination of a white house light) are controlled by an IBM compatible computer for offline analysis.
Rats are first trained to self-administer ethanol solution in 30-min daily operant sessions under a FR1 schedule of reinforcement, in which each response on the active lever results in delivery of 0.1 ml of ethanol. Each ethanol delivery is associated with a 5-sec time-out signalled by illumination of a white house light. Alcohol self-administration training continues until stable baseline responding is achieved. […] The procedure of each session is the same as ethanol self-administration sessions except that the lever responses are no longer reinforced. Animals are pre-treated with vehicle for 3 days before the initial administration of ORL-1 receptor antagonists in order to familiarize them with the oral administration procedure. The msP rats are then subjected to the reinstatement test conducted under the same extinction conditions. Reinstatement consists of oral administration of vehicle or test compound (3 or 30 mg/kg, n=10/group, solubilized in a 1:1 mixture of distilled water and 1M H3PO4, using gentle warming in a 45-60° C. water bath), followed 30-min later by intraperitoneal administration of yohimbine (2.0 mg/kg) 30-min before the operant session.

[3] = P rats, 30 mg/kg oral once daily, day 2
[4] = P rats, 30 mg/kg oral once daily, day 3
[5] = P rats, 30 mg/kg oral once daily, day 4
[6] = P rats, 30 mg/kg oral once daily, day 5

Row | Compound | Mean EtOH Consumed in g/kg (Drug-treated) (msP rats [1]; 3 mg/kg oral) [g/kg] | Reduction vs. Vehicle (EtOH consumed) (msP rats [1]; 3 mg/kg oral) [%] | Mean EtOH Consumed in g/kg (Drug-treated) (msP rats [1]; 30 mg/kg oral) [g/kg] | Reduction vs. Vehicle (EtOH consumed) (msP rats [1]; 30 mg/kg oral) [%] | Mean EtOH Consumed in g/kg (Drug-treated) (P rats; P rats, 10 mg/kg oral) [g/kg] | Reduction vs. Vehicle (EtOH consumed) (P rats; P rats, 10 mg/kg oral) [%] | Mean EtOH Consumed in g/kg (Drug-treated) (P rats; P rats, 30 mg/kg oral) [g/kg] | Reduction vs. Vehicle (EtOH consumed) (P rats; P rats, 30 mg/kg oral) [%] | ethanol self-administration (P rats; result in words) | Reduction vs. Vehicle (lever presses, yohimbine reinstatement) (msP rats [2]) [%] | Avg Lever Presses (Drug-treated) (msP rats [2]) | stress-induced reinstatement of ethanol-seeking (msP rats [2]) | also measured
1 | Cc1nn(-c2ncccc2CO)cc1CN1CCC2(CC1)OCC(F)(F)c1cc(Cl)sc12 [Compound 1, [2-[4-[(2-chloro-4,4-difluoro-spiro[5H-thieno[2,3-c]pyran-7,4′-piperidine]-1′-yl)methyl]-3-methyl-pyrazol-1-yl]-3-pyridyl]methanol] | 6.7 | 8.2 | 4.4 | 39.7 | 3.67 | 22.4 | 1.50 | 68.3 | significantly reduce ethanol self-administration | 72.7 | 4.8 | reduce stress-induced reinstatement of ethanol-seeking | Mean EtOH Consumed in g/kg (Drug-treated) (P rats; P rats, 3 mg/kg oral): 3.54 g/kg; Reduction vs. Vehicle (EtOH consumed) (P rats; P rats, 3 mg/kg oral): 25.2%; Mean EtOH Consumed in g/kg (day 2) (P rats; [3]): 1.59 g/kg; Reduction vs. vehicle (EtOH consumed, day 2) (P rats; [3]): 63.6%; Mean EtOH Consumed in g/kg (day 3) (P rats; [4]): 2.02 g/kg; Reduction vs. vehicle (EtOH consumed, day 3) (P rats; [4]): 61.8%; Mean EtOH Consumed in g/kg (day 4) (P rats; [5]): 2.69 g/kg; Reduction vs. vehicle (EtOH consumed, day 4) (P rats; [5]): 45.0%; Mean EtOH Consumed in g/kg (day 5) (P rats; [6]): 2.50 g/kg; Reduction vs. vehicle (EtOH consumed, day 5) (P rats; [6]): 54.0%; suppression of ethanol intake on repeated dosing (P rats; P rats, 4 days of once daily dosing, result in words): maintain suppression of ethanol intake in P rats throughout 4 days of once daily dosing without tachyphylaxis
2 | Cc1nn(-c2ncccc2F)cc1CN1CCC2(CC1)OCC(F)(F)c1cc(Cl)sc12 [Compound 2, 2-Chloro-4,4-difluoro-1′-[[1-(3-fluoro-2-pyridyl)-3-methyl-pyrazol-4-yl]methyl]spiro[5H-thieno[2,3-c]pyran-7,4′-piperidine]] | 5.6 | 20.0 | 5 | 28.6 | 3.70 | 28.3 | 3.40 | 34.1 | significantly reduce ethanol self-administration | 69.3 | 5.5 | reduce stress-induced reinstatement of ethanol-seeking | –
